{"source": "patent US4215136A", "about": "“Insoluble metal salts of N-acetyl-tryptophane and use thereof” (Cooperation Pharmaceutique Francaise, priority 1976, dated 1980)", "key": {"[1]": {"assay": "Interaction with a monoamine-oxidase inhibitor (MAOI, Tylciprine)", "assay_type": "in vivo, Sprague-Dawley male rats of OFA strain", "settings": "for central nervous action indicated by hyperthermia and hyperactivity: with MAOI (Tylciprine)", "protocol": "III--Action on the central nervous system:\n(A) Interaction with a monoamine-oxidase inhibitor (MAOI):\nSprague-Dawley male rats of OFA strain received 20 mg/kg intra peritoneally of Tylciprine (MAOI) and twenty minutes later, 3 g/kg of compound A (D,L) bucally."}, "[2]": {"assay_type": "in vivo, male rats", "text": "(B) Interaction with a MAOI after treatment with P.C.P.A.\nIf the test is renewed under the same conditions but on male rats previously treated by decreasing doses of P.C.P.A. which is a tryptophane-hydroxylase inhibitor, it is observed that: […]"}, "[3]": {"settings": "8640 min"}, "[4]": {"assay": "\"Shay ulcer\" test (pylorus ligature)", "assay_type": "in vivo, female rats (Sprague-Dawley OFA Iffa-Credo)", "protocol": "(A) Tests by the technique called \"Shay ulcer\" [Gastroenterology, 5, 43, (1945)].\nThe study was carried out on female rats [Sprague-Dawley OFA Iffa-Credo] weighing 170±10 g, conforming to the experimental protocol described below.\nAfter fasting 48 hours, during which the rats had always available to them a 20% glucose solution, the pylorus was ligated and all beverage was eliminated.\nCompound A in the form of two suspensions respectively 5 and 10% in distilled water containing 3% of gum arabic was administered orally and before the ligature of the pylorus to three groups of animals, the animals of the first two groups receiving the 5% solution and those of the third the 10% solution. These three groups of animals received active substance to the extent respectively of 250 mg/kg as regards those of the first group, 500 mg/kg as regards those of the second and 1000 mg/kg those of the third. A fourth group and control group of animals received 10 ml/kg of bidistilled water. […]\nThe tests having been carried out with aluminium acetyl-tryptophanate (compound A), on the one hand, and with titanium acetyl-tryptophanate (compound B), on the other hand, for each of these compounds there was determined, the \"anti-ulcer dose 50\" (or again active dose AD 50) by oral administration; for this determination the method of Litchfield and Wilcoxon [J. Pharmacol. 96, 98-111 (1949)], was employed. […]"}, "[5]": {"assay": "anti-ulcer activity after administering reserpine", "assay_type": "in vivo, Sprague-Dawley female rats, OFA S.P.F. Iffa Credo strain", "settings": "p.o., 3 hours before and 3 hours after reserpine 5 mg/kg i.p.; Litchfield and Wilcoxon; 1200 min", "protocol": "(D) Study of the anti-ulcer activity of compound A (D,L) and of compound B (D,L) after administering reserpine.\nThe technique used was that of Cohen and A. Pessonnier (Ann. Pharm. Fr (1963) 21, 215-22) according to the following protocol:\nSprague-Dawley female rats were used, of OFA S.P.F. Iffa Credo strain weighing 150±20 g; the rats received a single injection by the intraperitoneal route of 5 mg/kg of reserpine in solution in 0.25% acetic acid; the compound studied were administered twice by the buccal route: three hours before and three hours after the injection of reserpine; the rats were sacrificed 20 hours after the injection of reserpine; the assessment was established as follows:\n1 = one to two ulcers in the form of small\n2 = more than two ulcers\n3 = one to two ulcers in the form of more or\n4 = more than two ulcers\n5 = one to two ulcers in the form of \"furrows\"\nmeasuring at least 5 mm\n6 = more than two ulcers\nMaximum assessment for one stomach : 2 + 4 + 6 = 12\nFrom the results obtained the ulceration index was deduced; the percentage of inhibition was calculated with respect to the index obtained in the controls.\nThe values of the AD50 calculated according to the method of Litchfield and Wilcoxon are: […]"}, "[6]": {"assay": "\"stress ulcer\" technique aggravated by para-chloro-phenyl-alanine (PCPA)", "assay_type": "in vivo, female S.P.F. Sprague-Dawley OFA Iffa-Credo rats", "settings": "PCPA 100 mg/kg intraperitoneally", "protocol": "(C) Tests according to the \"stress ulcer\" technique aggravated by para-chloro-phenyl-alanine (PCPA) administered in a non-blocking dose.\nThe rats used were of the same sex, same strain and had the same weight as those used in the tests described under B. The experimental protocol was also the same.\nHowever, in these tests the rats received intraperitoneally, at the time of stressing, 100 mg/kg of PCPA in suspension in distilled water including 3% of gum arabic and an \"absolute control\" group was provided having received no preparation before placing under stress.\nBy reason of the aggravation of the ulcers caused by the PCPA, the Lwoff assessment is no longer usable and is replaced by the following:\n2 : three to four ulcers in the form of\n5 : one to two ulcers in the form of \"fur-\n6 : three to four ulcers least 5 mm in length\nwith a maximum of 4 + 6 = 10.\nIn this way it was possible to determine the ulceration index and the percentage inhibition with respect to the controls."}, "[7]": {"assay": "Activity on intestinal passage (vegetable carbon)", "assay_type": "in vivo, male mice", "settings": "2, 4 and 6 g/kg buccally; 10 minutes", "protocol": "II--Activity on intestinal passage:\nMale mice, fasting for 24 hours, weighing 18-20 g. were used.\nThe substances to be tested were administered buccally before a suspension of vegetable carbon (10 g/100 ml).\nAfter 10 minutes, the animals were bled and the intestine was removed and examined."}, "[8]": {"assay": "\"stress ulcer\" test (immobilization)", "assay_type": "in vivo, female S.P.F. Sprague-Dawley OFA Iffa-Credo rats", "protocol": "(B) Tests according to the technique called \"stress ulcer\". Rossi and Bonfils--Compte rendus de la Societe de Biologie, (1956), 150, page 2124.\nThe study was carried out on female S.P.F. Sprague-Dawley OFA Iffa-Credo rats, weighing 140±10 g and adhering to the following experimental protocol.\nTo cause the ulcer, the animals were immobilized in a flexible grid with meshes of 4×4 mm and suspended horizontally; they received neither food nor drink. They were sacrificed at the end of 24 hours. The stomachs were removed and opened and then the ulcers were counted with a binocular lens.\nEach stomach was assessed according to the method of J. M. LWOFF and the ulceration index calculated.\nThe compound A suspended in distilled water with 3% of gum arabic was administered 48 hours and 24 hours before and at the time of placing under stress to three groups of animals. These animals each received by the oral route, 500, 1000 and 1500 mg/kg of this compound according to their group.\nA control group received for three days, orally gummy water in the amount of 1 ml/100 g.\nAs in the case of \"Shay ulcer\" the same study was reproduced with kaolin.\nThe kaolin was suspended in distilled water with 3% of gum arabic and was administered by the buccal route 48 hours and 24 hours before and at the time of placing under stress. […]"}, "[9]": {"settings": "after PCPA 6 mg/kg for 1 day, Tylciprine"}, "[10]": {"settings": "2 g/kg, Tylciprine 20 mg/kg i.p."}, "[11]": {"settings": "3 g/kg bucally, Tylciprine 20 mg/kg i.p."}}, "note": "Where two headings read alike, the source gives them in different places.", "data": [{"smiles": "N[C@@H](Cc1c[nH]c2ccccc12)C(=O)O", "note": "[L-tryptophane]", "values": [{"measurement": "central nervous action indicated by hyperthermia and hyperactivity", "setting": "[1]", "result": "comparable activities"}]}, {"smiles": "CC(=O)N[C@@H](Cc1c[nH]c2ccccc12)C(=O)[O-].CC(=O)N[C@@H](Cc1c[nH]c2ccccc12)C(=O)[O-].CC(=O)N[C@@H](Cc1c[nH]c2ccccc12)C(=O)[O-].[Al+3]", "note": "[Compound A, monobasic-(DL) aluminium N-acetyl-tryptophanate]", "values": [{"measurement": "hyperactivity", "setting": "[2]; [9]", "result": "notable hyperactivity"}, {"measurement": "rectal temperature", "setting": "[2]; [9]", "result": "without variation in the rectal temperature"}, {"measurement": "hyperactivity", "setting": "[2]; after PCPA 12.5 mg/kg for 1 day, Tylciprine", "result": "first signs of hyperactivity"}, {"measurement": "hyperthermia and hyperactivity", "setting": "[2]; after PCPA 50 mg/kg for 2 days, Tylciprine", "result": "neither hyperthermia nor hyperactivity"}, {"measurement": "passage through the hemato-cerebral barrier", "setting": "[2]; rat, in vivo", "result": "passage of its anion through the hemato-cerebral barrier"}, {"measurement": "LD50 (higher than the total dose without mortality)", "setting": "[3]; oral, six days", "result": "> 15000", "unit": "mg/kg"}, {"measurement": "LD 50", "setting": "[3]; orally", "result": "> 15000", "unit": "mg/kg"}, {"measurement": "activity relative to that expected by reason of Al^3+ / Ti^4+ ions alone", "setting": "[4]; Shay ulcer", "result": "about 7 times higher"}, {"measurement": "AD 50 (anti-ulcer dose 50), Shay ulcer", "setting": "[4]; oral, before ligature of the pylorus, 18 hours, Litchfield and Wilcoxon", "result": 550, "unit": "mg/kg"}, {"measurement": "AD50, reserpine ulcer", "setting": "[5]", "result": 1447, "unit": "mg/kg"}, {"measurement": "anti-ulcer activity, stress ulcer aggravated by PCPA (in words)", "setting": "[6]", "result": "still considerable"}, {"measurement": "AD50, stress ulcer aggravated by PCPA", "setting": "[6]; oral route", "result": 1325, "unit": "mg/kg"}, {"measurement": "increase of intestinal passage with respect to the controls", "setting": "[7]", "result": "No significant increase"}, {"measurement": "hyperactivity", "setting": "[1]; [10]", "result": "notable hyperactivity"}, {"measurement": "hyperthermia", "setting": "[1]; [10]", "result": "does not cause hyperthermia"}, {"measurement": "hyperthermia", "setting": "[1]; 3 g/kg bucally, 20 minutes after Tylciprine 20 mg/kg i.p.", "result": "Hyperthermia was observed which commenced fairly rapidly"}, {"measurement": "hyperactivity", "setting": "[1]; [11]", "result": "hyperactivity"}, {"measurement": "onset of hyperactivity", "setting": "[1]; [11]", "result": 80, "unit": "min"}, {"measurement": "time of maximum hyperactivity", "setting": "[1]; [11]", "result": 155, "unit": "min"}, {"measurement": "time of maximum hyperthermia", "setting": "[1]; [11]", "result": 185, "unit": "min"}, {"measurement": "central nervous action indicated by hyperthermia and hyperactivity", "setting": "[1]", "result": "apparently central nervous serotoninergic action, that is to say antidepressive"}, {"measurement": "AD 50, stress ulcer", "setting": "[8]; buccal route, 48 h and 24 h before and at time of stress, sacrificed at 24 hours", "result": 700, "unit": "mg/kg"}, {"measurement": "superiority of compound A (over kaolin), stress ulcer versus Shay ulcer", "setting": "[8]; stress ulcer compared with Shay ulcer", "result": "still much more marked"}]}]}
